Reference: the NIST ThermoML archive (doi:10.1016/j.jct.2016.07.041)
Numbers after ± are expanded uncertainties.

Experiment: xn = mol fraction of the nth substance listed
Details: 101 kPa, Liquid; for viscosity: Capillary tube (Ostwald / Ubbelohde) method; for mass density: Vibrating tube method

NCCO [2-aminoethan-1-ol] + O
Details | mass density, 293.15 K [kg/m3] | mass density, 303.15 K [kg/m3] | mass density, 313.15 K [kg/m3] | mass density, 323.15 K [kg/m3] | mass density, 333.15 K [kg/m3] | viscosity, 293.15 K [mPa·s] | viscosity, 303.15 K [mPa·s] | viscosity, 313.15 K [mPa·s] | viscosity, 323.15 K [mPa·s] | viscosity, 333.15 K [mPa·s]
x1 = 0.0996 | 1010.9 ± 1.1 | 1006.8 ± 1.1 | 1002.1 ± 1.1 | 996.9 ± 1 | 991.2 ± 1 | 2.54 ± 0.19 | 1.89 ± 0.14 | 1.45 ± 0.1 | 1.15 ± 0.08 | 0.93 ± 0.06
x1 = 0.1991 | 1021.6 ± 1.1 | 1016.1 ± 1.1 | 1010.2 ± 1 | 1004 ± 1 | 997.6 ± 1 | 5.52 ± 0.37 | 3.84 ± 0.25 | 2.8 ± 0.18 | 2.09 ± 0.13 | 1.62 ± 0.1
x1 = 0.2986 | 1027.4 ± 1 | 1021 ± 1 | 1014.4 ± 1 | 1007.5 ± 1 | 1000.4 ± 1 | 10.06 ± 0.64 | 6.65 ± 0.42 | 4.62 ± 0.29 | 3.35 ± 0.21 | 2.52 ± 0.16
x1 = 0.3977 | 1029.4 ± 1 | 1022.5 ± 1 | 1015.4 ± 1 | 1007.8 ± 1 | 1000.6 ± 1 | 15.1 ± 0.93 | 9.64 ± 0.59 | 6.52 ± 0.4 | 4.66 ± 0.29 | 3.41 ± 0.21
x1 = 0.4967 | 1028.9 ± 1 | 1021.5 ± 1 | 1014.2 ± 1 | 1006.6 ± 1 | 999 ± 1 | 19.57 ± 1.2 | 12.22 ± 0.74 | 8.1 ± 0.49 | 5.67 ± 0.34 | 4.09 ± 0.25
x1 = 0.5958 | 1027 ± 1 | 1019.4 ± 1 | 1011.9 ± 1 | 1004.3 ± 1 | 996.5 ± 1 | 22.91 ± 1.4 | 14.08 ± 0.85 | 9.33 ± 0.56 | 6.46 ± 0.39 | 4.65 ± 0.28
x1 = 0.6946 | 1024.4 ± 1 | 1016.8 ± 1 | 1009 ± 1 | 1001.2 ± 1 | 993.4 ± 1 | 24.48 ± 1.5 | 15.01 ± 0.91 | 9.75 ± 0.59 | 6.9 ± 0.42 | 4.95 ± 0.3
x1 = 0.7932 | 1021.6 ± 1 | 1013.8 ± 1 | 1006 ± 1 | 998.2 ± 1 | 990.2 ± 1 | 25 ± 1.5 | 15.36 ± 0.93 | 9.98 ± 0.6 | 6.91 ± 0.42 | 4.99 ± 0.3
x1 = 0.8919 | 1018.7 ± 1 | 1010.8 ± 1 | 1002.9 ± 1 | 995 ± 1 | 987 ± 1 | 24.58 ± 1.5 | 15.16 ± 0.92 | 9.94 ± 0.6 | 6.89 ± 0.42 | 4.99 ± 0.3
x1 = 1 | 1015.5 ± 1 | 1007.6 ± 1 | 999.7 ± 1 | 991.7 ± 1 | 983.6 ± 1 | 23.65 ± 1.4 | 14.75 ± 0.89 | 9.78 ± 0.59 | 6.81 ± 0.41 | 4.99 ± 0.3

NCCO [2-aminoethan-1-ol] + CCCCn1cc[n+](C)c1.F[B-](F)(F)F
Details | mass density, 293.15 K [kg/m3] | mass density, 303.15 K [kg/m3] | mass density, 313.15 K [kg/m3] | mass density, 323.15 K [kg/m3] | mass density, 333.15 K [kg/m3] | viscosity, 293.15 K [mPa·s] | viscosity, 303.15 K [mPa·s] | viscosity, 313.15 K [mPa·s] | viscosity, 323.15 K [mPa·s] | viscosity, 333.15 K [mPa·s]
x2 = 0 | 1015.5 ± 1 | 1007.6 ± 1 | 999.7 ± 1 | 991.7 ± 1 | 983.6 ± 1 | 23.65 ± 1.4 | 14.75 ± 0.89 | 9.78 ± 0.59 | 6.81 ± 0.41 | 4.99 ± 0.3
x2 = 0.1001 | 1065.1 ± 2 | 1057.3 ± 2 | 1049.3 ± 2 | 1041.4 ± 2 | 1033.4 ± 2 | 26.23 ± 1.6 | 16.27 ± 0.98 | 10.72 ± 0.65 | 7.39 ± 0.45 | 5.38 ± 0.33
x2 = 0.2 | 1098.6 ± 1.6 | 1090.6 ± 1.6 | 1082.8 ± 1.6 | 1075 ± 1.6 | 1067.2 ± 1.6 | 29.02 ± 1.8 | 17.98 ± 1.1 | 11.84 ± 0.72 | 8.21 ± 0.5 | 6.02 ± 0.36
x2 = 0.2999 | 1123 ± 1.4 | 1115.4 ± 1.4 | 1107.6 ± 1.4 | 1099.8 ± 1.4 | 1092.1 ± 1.4 | 32.91 ± 2 | 20.36 ± 1.2 | 13.45 ± 0.81 | 9.29 ± 0.56 | 6.82 ± 0.41
x2 = 0.3751 | 1137.9 ± 1.3 | 1130.3 ± 1.3 | 1122.5 ± 1.3 | 1114.8 ± 1.3 | 1107.1 ± 1.3 | 36.29 ± 2.2 | 22.48 ± 1.4 | 14.89 ± 0.9 | 10.41 ± 0.63 | 7.57 ± 0.46
x2 = 0.5002 | 1157.4 ± 1.3 | 1149.9 ± 1.3 | 1142.3 ± 1.3 | 1134.7 ± 1.3 | 1127.1 ± 1.3 | 43.39 ± 2.6 | 26.71 ± 1.6 | 17.78 ± 1.1 | 12.4 ± 0.75 | 9.11 ± 0.55
x2 = 0.5997 | 1169.7 ± 1.3 | 1162.5 ± 1.3 | 1154.9 ± 1.3 | 1147.4 ± 1.3 | 1139.9 ± 1.2 | 51.66 ± 3.1 | 31.82 ± 1.9 | 20.98 ± 1.3 | 14.53 ± 0.88 | 10.6 ± 0.64
x2 = 0.6996 | 1180.2 ± 1.3 | 1173 ± 1.2 | 1165.4 ± 1.2 | 1158.2 ± 1.2 | 1150.7 ± 1.2 | 61.28 ± 3.7 | 37.57 ± 2.3 | 24.39 ± 1.5 | 17.03 ± 1 | 12.51 ± 0.76
x2 = 0.8 | 1189.4 ± 1.3 | 1182.3 ± 1.2 | 1174.8 ± 1.2 | 1167.5 ± 1.2 | 1160.3 ± 1.2 | 75.78 ± 4.6 | 46.5 ± 2.8 | 30.43 ± 1.9 | 21.12 ± 1.3 | 15.41 ± 0.94
x2 = 0.9003 | 1197.8 ± 1.3 | 1190.6 ± 1.2 | 1183.4 ± 1.2 | 1176.1 ± 1.2 | 1169.1 ± 1.2 | 98.71 ± 6.2 | 59.85 ± 3.7 | 39.19 ± 2.4 | 26.65 ± 1.6 | 19.22 ± 1.2

CCCCn1cc[n+](C)c1.F[B-](F)(F)F [1-butyl-3-methylimidazolium tetrafluoroborate] + O
Details | mass density, 293.15 K [kg/m3] | mass density, 303.15 K [kg/m3] | mass density, 313.15 K [kg/m3] | mass density, 323.15 K [kg/m3] | mass density, 333.15 K [kg/m3] | viscosity, 293.15 K [mPa·s] | viscosity, 303.15 K [mPa·s] | viscosity, 313.15 K [mPa·s] | viscosity, 323.15 K [mPa·s] | viscosity, 333.15 K [mPa·s]
x1 = 0.0998 | 1103.7 ± 1.9 | 1097.3 ± 1.9 | 1090.3 ± 1.8 | 1083.4 ± 1.8 | 1076.4 ± 1.8 | 3.23 ± 0.22 | 2.41 ± 0.16 | 1.88 ± 0.12 | 1.51 ± 0.1 | 1.24 ± 0.08
x1 = 0.1998 | 1141.5 ± 1.6 | 1134.5 ± 1.6 | 1126.9 ± 1.6 | 1119.6 ± 1.6 | 1112.2 ± 1.6 | 5.52 ± 0.35 | 4.12 ± 0.26 | 3.2 ± 0.2 | 2.56 ± 0.16 | 2.1 ± 0.13
x1 = 0.2994 | 1161.1 ± 1.3 | 1153.8 ± 1.3 | 1146.3 ± 1.3 | 1139 ± 1.3 | 1131.5 ± 1.3 | 8.41 ± 0.52 | 6.21 ± 0.39 | 4.78 ± 0.3 | 3.79 ± 0.24 | 3.1 ± 0.19
x1 = 0.3992 | 1173.4 ± 1.3 | 1166 ± 1.2 | 1158.7 ± 1.2 | 1151.4 ± 1.2 | 1144 ± 1.2 | 12.3 ± 0.77 | 8.95 ± 0.56 | 6.79 ± 0.42 | 5.34 ± 0.33 | 4.31 ± 0.27
x1 = 0.5005 | 1182.3 ± 1.2 | 1175 ± 1.2 | 1167.7 ± 1.2 | 1160.5 ± 1.2 | 1153.3 ± 1.2 | 17.96 ± 1.1 | 12.87 ± 0.8 | 9.63 ± 0.59 | 7.5 ± 0.46 | 6 ± 0.37
x1 = 0.5984 | 1188.9 ± 1.2 | 1181.6 ± 1.2 | 1174.3 ± 1.2 | 1167.1 ± 1.2 | 1160.1 ± 1.2 | 25.98 ± 1.6 | 18.1 ± 1.1 | 13.27 ± 0.82 | 10.11 ± 0.62 | 7.99 ± 0.49
x1 = 0.6985 | 1194.2 ± 1.2 | 1187 ± 1.2 | 1179.8 ± 1.2 | 1172.6 ± 1.2 | 1165.7 ± 1.2 | 39.21 ± 2.5 | 26.48 ± 1.6 | 18.9 ± 1.2 | 14.06 ± 0.87 | 10.79 ± 0.66
x1 = 0.7988 | 1198.5 ± 1.2 | 1191.4 ± 1.2 | 1184.3 ± 1.2 | 1177.1 ± 1.2 | 1170 ± 1.2 | 59.53 ± 3.7 | 38.86 ± 2.4 | 26.55 ± 1.6 | 19.05 ± 1.2 | 14.31 ± 0.88
x1 = 0.8982 | 1202 ± 1.2 | 1195 ± 1.2 | 1187.8 ± 1.2 | 1180.6 ± 1.2 | 1173.6 ± 1.2 | 89.35 ± 5.7 | 55.67 ± 3.5 | 37.01 ± 2.3 | 25.16 ± 1.6 | 18.53 ± 1.1
x1 = 1 | 1205.1 ± 1.2 | 1198 ± 1.2 | 1190.8 ± 1.2 | 1183.7 ± 1.2 | 1176.8 ± 1.2 | 139.12 ± 8.7 | 82.49 ± 5 | 52.33 ± 3.1 | 35.16 ± 2.1 | 24.69 ± 1.5
